Measured values taken from US7396958B2, “Sulphonamide derivatives, their preparation and their therapeutic application” (Sanofi Aventis, priority 2004, dated 2008).
pIC50: −log10 of the molar value. Where two headings read alike, the source gives them in different places.

Tests used:
orexin 2 receptors [1] = target: T1, orexin 2 receptors (Homo sapiens, UniProt O43614); assay: measurement of intracellular calcium (FLIPR), antagonist test against orexin B; assay type: cell-based; conditions: 30 minutes preincubation before addition of 0.25 nM orexin B, Fluo-4 AM, read-out: Measurement of [Ca^2+]i IC50 OX 2 - FLIPR
T1 sequence (O43614 1-444): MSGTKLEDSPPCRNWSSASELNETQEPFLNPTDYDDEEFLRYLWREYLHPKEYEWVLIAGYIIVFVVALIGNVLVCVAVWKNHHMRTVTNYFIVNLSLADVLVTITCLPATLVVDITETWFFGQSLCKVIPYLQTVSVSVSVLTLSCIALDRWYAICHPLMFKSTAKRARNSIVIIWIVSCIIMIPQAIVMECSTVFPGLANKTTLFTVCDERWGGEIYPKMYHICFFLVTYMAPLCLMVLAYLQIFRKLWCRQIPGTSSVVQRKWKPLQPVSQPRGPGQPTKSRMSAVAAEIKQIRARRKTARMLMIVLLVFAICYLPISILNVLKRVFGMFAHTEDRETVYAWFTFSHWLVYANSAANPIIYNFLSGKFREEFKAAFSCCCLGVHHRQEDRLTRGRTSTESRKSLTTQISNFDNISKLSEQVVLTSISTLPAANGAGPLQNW
Experimental: The agonist or antagonist nature of the compounds is determined in vitro in a test of measurement of intracellular calcium (FLIPR) on a cell preparation expressing the orexin 2 receptors, according to the general technique described in Sullivan et al., Methods Mol. Biol., 1999, vol. 114, 125-133, using 1 μM of Fluo-4 AM as fluorescent calcium indicator.

human orexin 1 receptors = target: T2, human orexin 1 receptors (Homo sapiens, UniProt O43613); assay: in vitro binding: displacement of radio-iodinated orexin A on CHO cell membrane preparation; conditions: membrane preparation of CHO cells expressing human orexin 1 receptors, read-out: IC50 OX 1; for IC50: unit μM
T2 construct: expressed in transfected cells; host or cells: CHO cells (membrane preparation)
T2 sequence (O43613 1-425): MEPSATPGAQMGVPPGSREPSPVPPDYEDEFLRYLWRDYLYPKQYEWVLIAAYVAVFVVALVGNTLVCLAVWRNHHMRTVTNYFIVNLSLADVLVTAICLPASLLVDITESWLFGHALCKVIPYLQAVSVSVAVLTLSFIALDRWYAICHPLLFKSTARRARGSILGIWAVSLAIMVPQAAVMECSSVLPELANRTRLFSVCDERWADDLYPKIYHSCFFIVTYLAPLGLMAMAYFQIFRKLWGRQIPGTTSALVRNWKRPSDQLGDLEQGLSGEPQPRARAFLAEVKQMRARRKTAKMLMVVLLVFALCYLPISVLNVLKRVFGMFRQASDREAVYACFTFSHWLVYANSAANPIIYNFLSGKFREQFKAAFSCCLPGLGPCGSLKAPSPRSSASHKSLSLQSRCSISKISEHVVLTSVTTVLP
Experimental: (§1) They were in particular tested as regards their effects. […] This method consists in studying the displacement of radio-iodinated orexin A bound to human orexin 2 receptors expressed in CHO cells. The test is performed on membranes in a Hepes 50 mM, MgCl2 1 mM, CaCl2 25 mM, NaN3 0.025%, bovine serum albumin (BSA) 1% incubation buffer and 100 pM of ligand, for 30 minutes at 25° C. The reaction is quenched by filtration and washing on a Whatman GF/C filter. The non-specific binding is measured in the presence of 10^−6M of human orexin B. The IC50 values (concentration that inhibits 50% of the binding of the radio-iodinated orexin A to its receptors) are low, less than 300 nM, in particular less than 100 nM and more particularly less than 30 nM. The affinity of the compounds according to the invention for the orexin 1 receptors was also studied in a test of in vitro binding according to the same technique using radio-iodinated orexin A as ligand in a membrane preparation of CHO cells expressing the human orexin 1 receptors. The compounds according to the invention show little or no affinity for the orexin 1 receptors.

orexin 2 receptors [2] = target: T1, orexin 2 receptors; assay: in vitro binding: displacement of radio-iodinated orexin A on CHO cell membranes; design: expressed in transfected cells; host or cells: CHO cells (membranes); conditions: human orexin 2 receptors in CHO cell membranes, 100 pM ligand, 30 minutes at 25° C., read-out: IC50 OX 2
Experimental: as §1, with “nM.” for “nM. The affinity of the compounds according to the invention for the orexin 1 receptors was also studied in a test of in vitro binding according to the same technique using radio-iodinated orexin A as ligand in a membrane preparation of CHO cells expressing the human orexin 1 receptors. The compounds according to the invention show little or no affinity for the orexin 1 receptors.”

For `CNC(=O)CN(c1ccc(Cl)cc1C(O)c1ccccc1)S(=O)(=O)c1ccc(OC)c(OC)c1` (centres unmarked) [Compound 137, N^2-{4-chloro-2-[hydroxy(phenyl)methyl]phenyl}-N^2-[(3,4-dimethoxyphenyl)sulfonyl]-N^1-methylglycinamide], the pIC50 (orexin 2 receptors [1]) was 8.00, the IC50 (human orexin 1 receptors) was > 10 µM and the pIC50 (orexin 2 receptors [2]) was 7.72.
For `COc1ccc(N(CC(N)=O)S(=O)(=O)c2ccc(OC)c(OC)c2)c(Cc2ccccc2Cl)c1` [Compound 138, N^2-[2-(2-Chlorobenzyl)-4-methoxyphenyl]-N^2-[(3,4-dimethoxyphenyl)sulfonyl]glycinamide], the pIC50 (orexin 2 receptors [1]) was 7.96, the pIC50 (human orexin 1 receptors) was 5.32 and the melting point was 184.6 °C. For the same compound, the pIC50 (orexin 2 receptors [2]) was 8.10.
`COc1ccc(S(=O)(=O)N(Cc2nnn(C)n2)c2ccc(Cl)cc2C(O)c2ccccc2Cl)cc1OC` (centres unmarked) [Compound 14, N-{4-chloro-2-[(2-chlorophenyl)(hydroxy)methyl]phenyl}-3,4-dimethoxy-N-[(2-methyl-2H-tetrazol-5-yl)methyl]benzenesulfonamide] gave a melting point of 94.8 °C.
With `COc1ccc(S(=O)(=O)N(CC(N)=O)c2cc(Cl)ccc2Cc2ccccc2Cl)cc1OC` [Compound 179, N^2-[5-Chloro-2-(2-chlorobenzyl)phenyl]-N^2-[(3,4-dimethoxyphenyl)sulfonyl]glycinamide] the melting point was 86.4 °C.
Work on `COc1ccc(S(=O)(=O)N(Cc2nnnn2C)c2ccc(Cl)cc2Cc2c(F)cccc2F)cc1OC` [Compound 152, N-[4-chloro-2-(2,6-difluorobenzyl)phenyl]-3,4-dimethoxy-N-[(1-methyl-1H-tetrazol-5-yl)methyl]benzenesulfonamide] yielded a melting point of 180.8 °C.
`COc1ccc(S(=O)(=O)N(CC(N)=O)c2cc(N(C)C)ccc2Cc2c(F)cccc2F)cc1OC` [Compound 202, N^2-[2-(2,6-difluorobenzyl)-5-(dimethylamino)phenyl]-N^2-[(3,4-dimethoxyphenyl)sulfonyl]glycinamide] gave a pIC50 (orexin 2 receptors [1]) of 8.15, a pIC50 (human orexin 1 receptors) of 5.73 and a pIC50 (orexin 2 receptors [2]) of 8.05.
In the case of `COc1ccc(S(=O)(=O)N(Cc2nccn2C)c2ccc(Cl)cc2Cc2ccccc2Cl)cc1OC` [Compound 107, N-[4-chloro-2-(2-chlorobenzyl)phenyl]-3,4-dimethoxy-N-[(1-methyl-1H-imidazol-2-yl)methyl]benzenesulfonamide], the pIC50 (orexin 2 receptors [1]) was 7.96, the pIC50 (human orexin 1 receptors) was 6.05 and the pIC50 (orexin 2 receptors [2]) was 7.70.
Work on `Cc1ccc(S(=O)(=O)N(CC(N)=O)c2ccc(Cl)cc2C(O)c2ccccc2Cl)cc1C` (centres unmarked) [Compound 28, N^2-{4-chloro-2-[(2-chlorophenyl)(hydroxy)methyl]phenyl}-N^2-[(3,4-dimethylphenyl)sulfonyl]glycinamide] yielded a pIC50 (orexin 2 receptors [1]) of 7.72, a pIC50 (human orexin 1 receptors) of 5.82 and a pIC50 (orexin 2 receptors [2]) of 7.21.
With `COc1ccc(S(=O)(=O)N(CC(N)=O)c2ccc(Cl)cc2N(C)c2ccccc2)cc1OC` [Compound 92, N^2-{4-chloro-2-[methyl(phenyl)amino]phenyl}-N^2-[(3,4-dimethoxyphenyl)sulfonyl]glycinamide] the melting point was 192.5 °C.
`CCOC(=O)CN(c1ccc(Cl)cc1C(O)c1ccccc1Cl)S(=O)(=O)c1ccc(OC)c(OC)c1` (centres unmarked) [Compound 1, Ethyl N-{4-chloro-2-[(2-chlorophenyl)(hydroxy)methyl]phenyl}-N-[(3,4-dimethoxyphenyl)sulfonyl]glycinate] showed a pIC50 (orexin 2 receptors [1]) of 8.30, a pIC50 (human orexin 1 receptors) of 6.35 and a pIC50 (orexin 2 receptors [2]) of 7.89.
For `CNC(=O)CN(c1ccc(Cl)cc1C(C)c1ccccc1Cl)S(=O)(=O)c1ccc(OC)c(OC)c1` (centres unmarked) [Compound 187, N^2-{4-chloro-2-[1-(2-chlorophenyl)ethyl]phenyl}-N^2-[(3,4-dimethoxyphenyl)sulfonyl]-N^1-methylglycinamide], the melting point was 151 °C.
For `COc1ccc(S(=O)(=O)N(CC(N)=O)c2ccc(Cl)cc2C(O)c2cccc(Cl)c2)cc1OC` (centres unmarked) [Compound 44, N^2-{4-chloro-2-[(3-chlorophenyl)(hydroxy)methyl]phenyl}-N^2-[(3,4-dimethoxyphenyl)sulfonyl]glycinamide], the pIC50 (orexin 2 receptors [1]) was 7.27, the IC50 (human orexin 1 receptors) was > 10 µM and the pIC50 (orexin 2 receptors [2]) was 7.07.
Compound `COc1ccc(S(=O)(=O)N(CC(N)=O)c2c(OC)cccc2-c2ccccc2)cc1OC` [Compound 312, N˜2˜-[(3,4-dimethoxyphenyl)sulfonyl]-N˜2˜-(3-methoxybiphenyl-2-yl)glycinamide] has a melting point of 86.8 °C.
In the case of `CNC(=O)CN(c1ccc(Cl)cc1N(C)c1ccccc1)S(=O)(=O)c1ccc(OC)c(OC)c1` [Compound 124, N^2-{4-chloro-2-[methyl(phenyl)amino]phenyl}-N^2-[(3,4-dimethoxyphenyl)sulfonyl]-N^1-methylglycinamide], the pIC50 (orexin 2 receptors [1]) was 7.19, the IC50 (human orexin 1 receptors) was > 10 µM and the pIC50 (orexin 2 receptors [2]) was 7.30.
Compound `COC(=O)CN(c1ccc(Cl)cc1C(O)c1ccccc1Cl)S(=O)(=O)c1ccc(OC)c(OC)c1` (centres unmarked) [Compound 21, Methyl N-{4-chloro-2-[(2-chlorophenyl)(hydroxy)methyl]phenyl}-N-[(3,4-dimethoxyphenyl)sulfonyl]glycinate] has a melting point of 158.5 °C.
`COc1cccc(S(=O)(=O)N(CC(N)=O)c2ccc(Cl)cc2C(O)c2ccccc2Cl)c1` (centres unmarked) [Compound 30] gave a pIC50 (orexin 2 receptors [1]) of 7.59, a pIC50 (human orexin 1 receptors) of 6.02 and a pIC50 (orexin 2 receptors [2]) of 7.09.
